{"source": "patent US10770169B2", "about": "“Method of providing a treatment to a subject based on a dynamic pathway map” (THE REGENTS OF THE UNIVERSITY OF CALIFORNIA, priority 2010, dated 2020)", "key": {"[1]": {"test_system": "luminal, basal, claudin-low and ERBB2AMP breast cancer cell lines", "assay": "Associations of clinically relevant subtypes and response (non-parametric ANOVA or t-test on GI50 ranks)", "format": "cell-based, human", "summary_of_the_method": "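Significance was set at FDR p<0.20 after combining p-values across three test sets. Subtype–response associations came from rank-based non-parametric ANOVA or t-tests on GI50. For three-class comparisons, post-hoc tests of each group against the rest identified the most sensitive group, with FDR correction.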"}, "[2]": {"test_system": "panel of 55 breast cancer cell lines", "assay": "Cell growth inhibition assay (Cell Titer Glo, 72 h, 9 doses; GI50, TGI, LC50)", "format": "cell-based, human", "conditions": "Homo sapiens, read-out: GI50 (converted)"}}, "note": "Where two headings read alike, the source gives them in different places.", "data": [{"smiles": "COc1cc([C@@H]2c3cc4c(cc3[C@@H](O[C@@H]3O[C@@H]5CO[C@@H](C)O[C@H]5[C@H](O)[C@H]3O)[C@H]3COC(=O)[C@H]23)OCO4)cc(OC)c1O", "note": "[Etoposide]", "values": [{"measurement": "subtype-specific response (sensitivity by transcriptional subtype)", "setting": "[1]; GI50 across subtypes", "result": "preferential activity in basal and/or claudin-low cell lines"}, {"measurement": "Subtype specificity", "setting": "[1]; Table 6, most sensitive subtype, FDR p<0.20", "result": "Claudin-low"}, {"measurement": "GI50", "setting": "[2]; 600MPE cell line, censored GI50 values", "result": 9.77, "unit": "µM"}, {"measurement": "GI50", "setting": "[2]; AU565, AU565 cell line, censored GI50 values", "result": 0.676, "unit": "µM"}, {"measurement": "GI50", "setting": "[2]; AU565, cell line AU565", "result": 0.676, "unit": "µM"}, {"measurement": "GI50", "setting": "[2]; BT-20, BT20 cell line, censored GI50 values", "result": 3.31, "unit": "µM"}, {"measurement": "GI50", "setting": "[2]; BT-20, cell line BT20", "result": 3.31, "unit": "µM"}, {"measurement": "GI50", "setting": "[2]; BT-474, BT474 cell line, censored GI50 values", "result": 19.1, "unit": "µM"}, {"measurement": "GI50", "setting": "[2]; BT-474, cell line BT474", "result": 19.1, "unit": "µM"}, {"measurement": "GI50", "setting": "[2]; BT-483, BT483 cell line, censored GI50 values", "result": 4.27, "unit": "µM"}, {"measurement": "GI50", "setting": "[2]; BT-483, cell line BT483", "result": 4.27, "unit": "µM"}, {"measurement": "GI50", "setting": "[2]; BT-549, BT549 cell line, censored GI50 values", "result": 1.38, "unit": "µM"}, {"measurement": "GI50", "setting": "[2]; BT-549, cell line BT549", "result": 1.38, "unit": "µM"}, {"measurement": "GI50", "setting": "[2]; CAMA-1, CAMA1 cell line, censored GI50 values", "result": 5.01, "unit": "µM"}, {"measurement": "GI50", "setting": "[2]; CAMA-1, cell line CAMA1", "result": 5.01, "unit": "µM"}, {"measurement": "GI50", "setting": "[2]; HCC38, HCC38 cell line, censored GI50 values", "result": 0.295, "unit": "µM"}, {"measurement": "GI50", "setting": "[2]; HCC38, cell line HCC38", "result": 0.295, "unit": "µM"}, {"measurement": "GI50", "setting": "[2]; HCC70, HCC70 cell line, censored GI50 values", "result": 12.9, "unit": "µM"}, {"measurement": "GI50", "setting": "[2]; HCC70, cell line HCC70", "result": 12.9, "unit": "µM"}, {"measurement": "GI50", "setting": "[2]; HCC202, HCC202 cell line, censored GI50 values", "result": 0.933, "unit": "µM"}, {"measurement": "GI50", "setting": "[2]; HCC202, cell line HCC202", "result": 0.933, "unit": "µM"}, {"measurement": "GI50", "setting": "[2]; HCC1143, HCC1143 cell line, censored GI50 values", "result": 5.13, "unit": "µM"}, {"measurement": "GI50", "setting": "[2]; HCC1143, cell line HCC1143", "result": 5.13, "unit": "µM"}, {"measurement": "GI50", "setting": "[2]; HCC1187, HCC1187 cell line, censored GI50 values", "result": 0.692, "unit": "µM"}, {"measurement": "GI50", "setting": "[2]; HCC1187, cell line HCC1187", "result": 0.692, "unit": "µM"}, {"measurement": "GI50", "setting": "[2]; HCC1395, HCC1395 cell line, censored GI50 values", "result": 3.09, "unit": "µM"}, {"measurement": "GI50", "setting": "[2]; HCC1395, cell line HCC1395", "result": 3.09, "unit": "µM"}, {"measurement": "GI50", "setting": "[2]; HCC1419, HCC1419 cell line, censored GI50 values", "result": 70.8, "unit": "µM"}, {"measurement": "GI50", "setting": "[2]; HCC1419, cell line HCC1419", "result": 70.8, "unit": "µM"}, {"measurement": "GI50", "setting": "[2]; HCC1428, HCC1428 cell line, censored GI50 values", "result": 34.7, "unit": "µM"}, {"measurement": "GI50", "setting": "[2]; HCC1428, cell line HCC1428", "result": 34.7, "unit": "µM"}, {"measurement": "GI50", "setting": "[2]; HCC1500, HCC1500 cell line, censored GI50 values", "result": 1.41, "unit": "µM"}, {"measurement": "GI50", "setting": "[2]; HCC1500, cell line HCC1500", "result": 1.41, "unit": "µM"}, {"measurement": "GI50", "setting": "[2]; HCC1806, HCC1806 cell line, censored GI50 values", "result": 3.09, "unit": "µM"}, {"measurement": "GI50", "setting": "[2]; HCC1806, cell line HCC1806", "result": 3.09, "unit": "µM"}, {"measurement": "GI50", "setting": "[2]; HCC1937, HCC1937 cell line, censored GI50 values", "result": 4.57, "unit": "µM"}, {"measurement": "GI50", "setting": "[2]; HCC1937, cell line HCC1937", "result": 4.57, "unit": "µM"}, {"measurement": "GI50", "setting": "[2]; HCC1954, HCC1954 cell line, censored GI50 values", "result": 1, "unit": "µM"}, {"measurement": "GI50", "setting": "[2]; HCC1954, cell line HCC1954", "result": 1, "unit": "µM"}, {"measurement": "GI50", "setting": "[2]; HCC2185 cell line, censored GI50 values", "result": 7.76, "unit": "µM"}, {"measurement": "GI50", "setting": "[2]; HCC3153 cell line, censored GI50 values", "result": 2.95, "unit": "µM"}, {"measurement": "GI50", "setting": "[2]; MCF7, MCF7 cell line, censored GI50 values", "result": 11.2, "unit": "µM"}, {"measurement": "GI50", "setting": "[2]; MCF7, cell line MCF7", "result": 11.2, "unit": "µM"}, {"measurement": "GI50", "setting": "[2]; MDA-MB-134-VI, MDAMB134VI cell line, censored GI50 values", "result": 2.45, "unit": "µM"}, {"measurement": "GI50", "setting": "[2]; MDA-MB-157, MDAMB157 cell line, censored GI50 values", "result": 0.955, "unit": "µM"}, {"measurement": "GI50", "setting": "[2]; MDA-MB-157, cell line MDAMB157", "result": 0.955, "unit": "µM"}, {"measurement": "GI50", "setting": "[2]; MDA-MB-175-VII, MDAMB175VII cell line, censored GI50 values", "result": 72.4, "unit": "µM"}, {"measurement": "GI50", "setting": "[2]; MDA-MB-231, MDAMB231 cell line, censored GI50 values", "result": 2.04, "unit": "µM"}, {"measurement": "GI50", "setting": "[2]; MDA-MB-231, cell line MDAMB231", "result": 2.04, "unit": "µM"}, {"measurement": "GI50", "setting": "[2]; MDA-MB-361, MDAMB361 cell line, censored GI50 values", "result": 14.1, "unit": "µM"}, {"measurement": "GI50", "setting": "[2]; MDA-MB-361, cell line MDAMB361", "result": 14.1, "unit": "µM"}, {"measurement": "GI50", "setting": "[2]; MDA-MB-415, MDAMB415 cell line, censored GI50 values", "result": 13.8, "unit": "µM"}, {"measurement": "GI50", "setting": "[2]; MDA-MB-415, cell line MDAMB415", "result": 13.8, "unit": "µM"}, {"measurement": "GI50", "setting": "[2]; MDA-MB-436, MDAMB436 cell line, censored GI50 values", "result": 1, "unit": "µM"}, {"measurement": "GI50", "setting": "[2]; MDA-MB-436, cell line MDAMB436", "result": 1, "unit": "µM"}, {"measurement": "GI50", "setting": "[2]; MDA-MB-453, MDAMB453 cell line, censored GI50 values", "result": 5.01, "unit": "µM"}, {"measurement": "GI50", "setting": "[2]; MDA-MB-453, cell line MDAMB453", "result": 5.01, "unit": "µM"}, {"measurement": "GI50", "setting": "[2]; MDA-MB-468, MDAMB468 cell line, censored GI50 values", "result": 2.57, "unit": "µM"}, {"measurement": "GI50", "setting": "[2]; MDA-MB-468, cell line MDAMB468", "result": 2.57, "unit": "µM"}, {"measurement": "GI50", "setting": "[2]; SK-BR-3, SKBR3 cell line, censored GI50 values", "result": 1.2, "unit": "µM"}, {"measurement": "GI50", "setting": "[2]; SK-BR-3, cell line SKBR3", "result": 1.2, "unit": "µM"}, {"measurement": "GI50", "setting": "[2]; SUM52PE, SUM52PE cell line, censored GI50 values", "result": 2.57, "unit": "µM"}, {"measurement": "GI50", "setting": "[2]; SUM52PE, cell line SUM52PE", "result": 2.57, "unit": "µM"}, {"measurement": "GI50", "setting": "[2]; SUM149PT, SUM149PT cell line, censored GI50 values", "result": 2.63, "unit": "µM"}, {"measurement": "GI50", "setting": "[2]; SUM149PT, cell line SUM149PT", "result": 2.63, "unit": "µM"}, {"measurement": "GI50", "setting": "[2]; SUM185PE, SUM185PE cell line, censored GI50 values", "result": 4.9, "unit": "µM"}, {"measurement": "GI50", "setting": "[2]; SUM185PE, cell line SUM185PE", "result": 4.9, "unit": "µM"}, {"measurement": "GI50", "setting": "[2]; SUM225CWN, SUM225CWN cell line, censored GI50 values", "result": 10.2, "unit": "µM"}, {"measurement": "GI50", "setting": "[2]; SUM225CWN, cell line SUM225CWN", "result": 10.2, "unit": "µM"}, {"measurement": "GI50", "setting": "[2]; SUM1315MO2, SUM1315MO2 cell line, censored GI50 values", "result": 0.288, "unit": "µM"}, {"measurement": "GI50", "setting": "[2]; SUM-159-PT, SUM159PT cell line, censored GI50 values", "result": 0.776, "unit": "µM"}, {"measurement": "GI50", "setting": "[2]; SUM-159-PT, cell line SUM159PT", "result": 0.776, "unit": "µM"}, {"measurement": "GI50", "setting": "[2]; T47D, T47D cell line, censored GI50 values", "result": 1.07, "unit": "µM"}, {"measurement": "GI50", "setting": "[2]; T47D, cell line T47D", "result": 1.07, "unit": "µM"}, {"measurement": "GI50", "setting": "[2]; UACC-893, UACC893 cell line, censored GI50 values", "result": 55, "unit": "µM"}, {"measurement": "GI50", "setting": "[2]; UACC-893, cell line UACC893", "result": 55, "unit": "µM"}, {"measurement": "GI50", "setting": "[2]; ZR-75-1, ZR751 cell line, censored GI50 values", "result": 2.09, "unit": "µM"}, {"measurement": "GI50", "setting": "[2]; ZR-75-1, cell line ZR751", "result": 2.09, "unit": "µM"}, {"measurement": "GI50", "setting": "[2]; ZR-75B, ZR75B cell line, censored GI50 values", "result": 0.871, "unit": "µM"}, {"measurement": "GI50", "setting": "[2]; ZR-75B, cell line ZR75B", "result": 0.871, "unit": "µM"}, {"measurement": "GI50", "setting": "[2]; cell line 600MPE", "result": 9.77, "unit": "µM"}, {"measurement": "GI50", "setting": "[2]; cell line HCC2185", "result": 7.76, "unit": "µM"}, {"measurement": "GI50", "setting": "[2]; cell line HCC3153", "result": 2.95, "unit": "µM"}, {"measurement": "GI50", "setting": "[2]; cell line MDAMB134V", "result": 2.45, "unit": "µM"}, {"measurement": "GI50", "setting": "[2]; cell line MDAMB175V", "result": 72.4, "unit": "µM"}, {"measurement": "GI50", "setting": "[2]; cell line SUM1315MO", "result": 0.288, "unit": "µM"}]}]}
